Experimental data published in US12421249B2, “Inhibitors of APOL1 and methods of using same” (Vertex Pharmaceuticals Incorporated, priority 2020, dated 2025).

Molecular target: T1, APOL1 (Homo sapiens, UniProt O14791)
T1 sequence (O14791 1-398 S342G/I384M): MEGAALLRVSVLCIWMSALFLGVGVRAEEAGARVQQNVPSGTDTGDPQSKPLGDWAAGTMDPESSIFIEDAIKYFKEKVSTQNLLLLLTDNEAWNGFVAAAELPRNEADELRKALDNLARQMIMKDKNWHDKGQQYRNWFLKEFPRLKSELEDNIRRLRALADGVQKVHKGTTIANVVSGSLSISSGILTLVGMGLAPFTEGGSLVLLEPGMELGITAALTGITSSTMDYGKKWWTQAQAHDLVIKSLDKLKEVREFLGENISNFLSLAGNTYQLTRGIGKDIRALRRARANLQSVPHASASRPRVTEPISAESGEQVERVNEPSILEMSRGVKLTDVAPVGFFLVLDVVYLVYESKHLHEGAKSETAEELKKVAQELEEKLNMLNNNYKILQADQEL
Assay: Multi-Tox Assay (MultiTox-Fluor Multiplex Cytotoxicity Assay in tet-inducible APOL1 T-REx-HEK293 cells; Table 46 does not say which APOL1 variant G0/G1/G2)
Format: cell-based
Conditions: APOL1 variant not given; for IC50: IP50 = IC50 for cell proliferation

Compound	Multi-Tox Assay Max Activity (%)	IC50 [nM]	IC90 [nM]
C[C@H]1C[C@@]2(C[C@@H](c3cn(Cc4cccnn4)nn3)N1)OCC(F)(F)c1cc(Cl)sc12 [Compound 321]	99.0	< 50	–
C[C@H]1C[C@@]2(C[C@@H](c3cn(Cc4ccc(O)nc4)nn3)N1)OC[C@@H](O)c1cc(Cl)sc12 [Compound 275]	94.0	50 to 500	–
C[C@H]1C[C@@]2(C[C@@H](c3cn(CC4CCS(=O)(=O)C4)nn3)N1)OC[C@@H](O)c1cc(Cl)sc12 (stereo partly shown) [Compound 265]	99.0	50 to 500	–
C[C@H]1C[C@@]2(C[C@@H](c3cn(CC4CCC(=O)NC4)nn3)N1)OC[C@@H](O)c1cc(Cl)sc12 (stereo partly shown) [Compound 254]	92.0	> 500	–
COc1ccc(C(O)Cn2cc([C@@H]3C[C@]4(C[C@H](C)N3)OCC(F)(F)c3cc(Cl)sc34)nn2)cc1 (stereo partly shown) [Compound 348]	97.0	50 to 500	–
C[C@H]1C[C@@]2(C[C@@H](c3cn(Cc4ccccc4S(C)(=O)=O)nn3)N1)OCC(F)(F)c1cc(Cl)sc12 [Compound 347]	96.0	50 to 500	–
Cc1cc(Cn2cc([C@@H]3C[C@]4(C[C@H](C)N3)OCC(F)(F)c3cc(Cl)sc34)nn2)ccn1 [Compound 336]	99.0	< 50	–
C[C@H]1C[C@@]2(C[C@@H](c3cn(CC4CCCCO4)nn3)N1)OC[C@@H](O)c1cc(Cl)sc12 (stereo partly shown) [Compound 227]	100.0	50 to 500	–
C[C@H]1C[C@@]2(C[C@@H](c3cn(CC(O)c4ccccc4)nn3)N1)OCC(F)(F)c1cc(Cl)sc12 (stereo partly shown) [Compound 322]	97.0	50 to 500	–
C[C@H]1C[C@@]2(C[C@@H](c3cn(Cc4cncs4)nn3)N1)OC[C@@H](O)c1cc(Cl)sc12 [Compound 248]	–	< 50	–
C#C[C@@H]1C[C@]2(C[C@H](C)N1)OCCc1cc(Cl)sc12 [Compound 221, (2S,4S,6S)-2′-chloro-2-ethynyl-6-methyl-4′,5′-dihydrospiro[piperidine-4,7′-thieno[2,3-c]pyran]]	–	< 50	–
C[C@@H](CO)CCn1cc([C@@H]2C[C@]3(C[C@H](C)N2)OC[C@@H](O)c2cc(Cl)sc23)nn1 [Compound 299]	99.0	< 50	50 to 500
C[C@H]1C[C@@]2(C[C@@H](c3cn(Cc4ccc(OC5CCOCC5)cc4)nn3)N1)OCC(F)(F)c1cc(Cl)sc12 [Compound 308]	95.0	50 to 500	–
COCCn1cc([C@@H]2C[C@]3(C[C@H](C)N2)OCC(F)(F)c2cc(Cl)sc23)nn1 [Compound 323]	100.0	< 50	–
CC(C)C(=O)NCCn1cc([C@@H]2C[C@]3(C[C@H](C)N2)OC[C@@H](O)c2cc(Cl)sc23)nn1 [Compound 230]	98.0	50 to 500	–
COCC(O)Cn1cc([C@@H]2C[C@]3(C[C@H](C)N2)OC[C@@H](O)c2cc(Cl)sc23)nn1 (stereo partly shown) [Compound 226]	100.0	50 to 500	–
C[C@H]1C[C@@]2(C[C@@H](c3cn(Cc4cnccn4)nn3)N1)OCC(F)(F)c1cc(Cl)sc12 [Compound 317]	98.0	50 to 500	–
COCC1(Cn2cc([C@@H]3C[C@]4(C[C@H](C)N3)OCC(F)(F)c3cc(Cl)sc34)nn2)CC1 [Compound 312]	91.0	> 500	> 500
Cc1cc(Cn2cc([C@@H]3C[C@]4(C[C@H](C)N3)OC[C@@H](O)c3cc(Cl)sc34)nn2)ccn1 [Compound 296]	99.0	50 to 500	–
Cc1noc(C)c1Cn1cc([C@@H]2C[C@]3(C[C@H](C)N2)OCC(F)(F)c2cc(Cl)sc23)nn1 [Compound 353]	100.0	< 50	–
C[C@H]1C[C@@]2(C[C@@H](c3cn(Cc4ncnc5[nH]ccc45)nn3)N1)OC[C@@H](O)c1cc(Cl)sc12 [Compound 234]	100.0	< 50	–
COc1cc(F)cc(Cn2cc([C@@H]3C[C@]4(C[C@H](C)N3)OC[C@@H](O)c3cc(Cl)sc34)nn2)c1 [Compound 293]	100.0	< 50	–
CCC(O)Cn1cc([C@@H]2C[C@]3(C[C@H](C)N2)OCC(F)(F)c2cc(Cl)sc23)nn1 (stereo partly shown) [Compound 325]	98.0	< 50	–
C[C@H]1C[C@@]2(C[C@@H](c3cn(CCOc4ccccc4F)nn3)N1)OC[C@@H](O)c1cc(Cl)sc12 [Compound 301]	99.0	< 50	–
C[C@H]1C[C@@]2(C[C@@H](c3cn(Cc4ccc(S(C)(=O)=O)cc4)nn3)N1)OCC(F)(F)c1cc(Cl)sc12 [Compound 355]	98.0	50 to 500	–

Compound	Multi-Tox Assay Max Activity (%)	IC50 [nM]	IC90 [nM]
Cc1cc(C)nc(CCn2cc([C@@H]3C[C@]4(C[C@H](C)N3)OCC(F)(F)c3cc(Cl)sc34)nn2)c1 [Compound 351]	98.0	< 50	–
C[C@H]1C[C@@]2(C[C@@H](c3cn(CC(F)F)nn3)N1)OC[C@@H](O)c1cc(Cl)sc12 [Compound 283]	–	50 to 500	–
C[C@H]1C[C@@]2(C[C@@H](c3cn(C[C@H](O)CO)nn3)N1)OC[C@@H](O)c1cc(Cl)sc12 [Compound 300]	100.0	50 to 500	50 to 500
C[C@H]1C[C@@]2(C[C@@H](c3cn(CC(C)(C)O)nn3)N1)OC[C@@H](O)c1cc(Cl)sc12 [Compound 247]	–	50 to 500	–
C[C@H]1C[C@@]2(C[C@@H](c3cn(Cc4ccc(OC5CCOCC5)cc4)nn3)N1)OC[C@@H](O)c1cc(Cl)sc12 [Compound 266]	100.0	< 50	–
C#C[C@@H]1C[C@]2(C[C@H](C)N1)OCC(F)(F)c1cc(Cl)sc12 [Compound 223, (2′S,6′S,7S)-2-chloro-2′-ethynyl-4,4-difluoro-6′-methyl-spiro[5H-thieno[2,3-c]pyran-7,4′-piperidine]]	–	> 500	–
Cc1ccnn1CCn1cc([C@@H]2C[C@]3(C[C@H](C)N2)OC[C@@H](O)c2cc(Cl)sc23)nn1 [Compound 274]	97.0	50 to 500	–
CNC(=O)C(C)Cn1cc([C@@H]2C[C@]3(C[C@H](C)N2)OC[C@@H](O)c2cc(Cl)sc23)nn1 (stereo partly shown) [Compound 258]	98.0	50 to 500	–
C[C@H]1C[C@@]2(C[C@@H](c3cn(Cc4ccccc4S(C)(=O)=O)nn3)N1)OC[C@@H](O)c1cc(Cl)sc12 [Compound 231]	95.0	50 to 500	–
C[C@H]1C[C@@]2(C[C@@H](c3cn(CC#N)nn3)N1)OC[C@@H](O)c1cc(Cl)sc12 [Compound 255]	100.0	50 to 500	–
C[C@H]1C[C@@]2(C[C@@H](c3cn(CCC(C)(C)O)nn3)N1)OC[C@@H](O)c1cc(Cl)sc12 [Compound 252]	100.0	< 50	–
Cc1ncc(Cn2cc([C@@H]3C[C@]4(C[C@H](C)N3)OC[C@@H](O)c3cc(Cl)sc34)nn2)cn1 [Compound 277]	100.0	< 50	–
C[C@H]1C[C@@]2(C[C@@H](c3cn(Cc4ccc(O)cc4)nn3)N1)OCC(F)(F)c1cc(Cl)sc12 [Compound 302]	94.0	50 to 500	–
COc1cc(F)cc(Cn2cc([C@@H]3C[C@]4(C[C@H](C)N3)OCC(F)(F)c3cc(Cl)sc34)nn2)c1 [Compound 333]	97.0	50 to 500	–
COc1cccc(Cn2cc([C@@H]3C[C@]4(C[C@H](C)N3)OCC(F)(F)c3cc(Cl)sc34)nn2)c1 [Compound 319]	95.0	50 to 500	–
C[C@H]1C[C@@]2(C[C@@H](c3cn(CC4CCCCO4)nn3)N1)OCC(F)(F)c1cc(Cl)sc12 (stereo partly shown) [Compound 343]	97.0	50 to 500	–
C[C@H]1C[C@@]2(C[C@@H](c3cn(CC4CCS(=O)(=O)C4)nn3)N1)OCC(F)(F)c1cc(Cl)sc12 (stereo partly shown) [Compound 307]	99.0	< 50	–
C[C@H]1C[C@@]2(C[C@@H](c3cn(CC(F)F)nn3)N1)OCC(F)(F)c1cc(Cl)sc12 [Compound 324]	96.0	50 to 500	–
C[C@H]1C[C@@]2(C[C@@H](c3cn(CCC(N)=O)nn3)N1)OC[C@@H](O)c1cc(Cl)sc12 [Compound 288]	97.0	50 to 500	–
Cc1noc(C)c1Cn1cc([C@@H]2C[C@]3(C[C@H](C)N2)OC[C@@H](O)c2cc(Cl)sc23)nn1 [Compound 237]	99.0	< 50	–
C[C@H]1C[C@@]2(C[C@@H](c3cn(CCS(=O)(=O)Nc4ccccc4)nn3)N1)OC[C@@H](O)c1cc(Cl)sc12 [Compound 241]	97.0	< 50	50 to 500
C[C@H]1C[C@@]2(C[C@@H](c3cn(Cc4cnccn4)nn3)N1)OC[C@@H](O)c1cc(Cl)sc12 [Compound 276]	100.0	50 to 500	–
CC(C)N1CC(Cn2cc([C@@H]3C[C@]4(C[C@H](C)N3)OC[C@@H](O)c3cc(Cl)sc34)nn2)CC1=O (stereo partly shown) [Compound 287]	96.0	50 to 500	–
C[C@H]1C[C@@]2(C[C@@H](c3cn(CCOc4ccccc4F)nn3)N1)OCC(F)(F)c1cc(Cl)sc12 [Compound 354]	99.0	50 to 500	–
